Measured values from ChEMBL document CHEMBL6109084 (Eur J Med Chem, 2025).
Values belong to the compound of their own block, whether it stands above or below them. Calls of active or inactive are those of the source. The rule behind the calls is not given here.

Key:
HK-2 [1] = experiment: Cytotoxicity against human HK-2 cells assessed as reduction in cell viability at 50 uM incubated for 24 hrs by MTT assay; type: toxicity, cell-based; conditions: hk-2, 24 h
Coagulation factor XI = Coagulation factor XI (Homo sapiens, UniProt P03951); experiment: Inhibition of human FXIa using p-Glu-Pro-Arg-pNA.HCl as substrate incubated for 30 mins followed by substrate addition and measured after 60 mins by microplate reader analysis
Plasma [2] = experiment: Anticoagulant activity in citrated human plasma assessed as prolongation of activated partial thromboplastin time at 1 uM incubated for 3 mins by aPTT reagent based automated coagulometric analysis relative to control; type: functional; conditions: 0.05 h
Chymotrypsin = Chymotrypsin (Homo sapiens, UniProt Q99895+P17538+P40313+Q6GPI1); experiment: Inhibition of chymotrypsin (unknown origin) using N-Suc-Ala-Ala-Pro-Phe-pNA as substrate incubated for 30 mins followed by substrate addition and measured after 60 mins by microplate reader analysis; type: protein assay
Trypsin = Trypsin (Homo sapiens, UniProt P07477+P07478+P35030); experiment: Inhibition of trypsin (unknown origin) using Bz-Ile-Glu(gamma-OR)-Gly-Arg-pNA.HCl as substrate incubated for 30 mins followed by substrate addition and measured after 60 mins by microplate reader analysis; type: protein assay
Plasma [3] = experiment: Anticoagulant activity in citrated human plasma assessed as prolongation of prothrombin time incubated for 3 mins by PT reagent based automated coagulometric analysis; type: functional, cell-free
Plasma [4] = experiment: Anticoagulant activity in mouse plasma assessed as prolongation of activated partial thromboplastin time incubated for 3 mins by aPTT reagent based automated coagulometric analysis; type: functional; conditions: 0.05 h
[5] = Selectivity index, ratio of IC50 for inhibition of tPA (unknown origin) using H-D-Ile-Pro-Arg-pNA-2HCl as substrate to IC50 for inhibition of human FXIa using p-Glu-Pro-Arg-pNA.HCl as substrate
Plasma [6] = experiment: Anticoagulant activity in citrated human plasma assessed as prolongation of activated partial thromboplastin time incubated for 3 mins by aPTT reagent based automated coagulometric analysis; type: functional
Plasma kallikrein = Plasma kallikrein (Homo sapiens, UniProt P03952); experiment: Inhibition of PKal (unknown origin) using H-D-Pro-Phe-Arg-pNA.2HCl as substrate incubated for 30 mins followed by substrate addition and measured after 60 mins by microplate reader analysis
Coagulation factor X = Coagulation factor X (Homo sapiens, UniProt P00742); experiment: Inhibition of FXa (unknown origin) using Z-D-Arg-Gly-Arg-pNA.2HCl as substrate incubated for 30 mins followed by substrate addition and measured after 60 mins by microplate reader analysis
Coagulation factor XII = molecular target: T1, Coagulation factor XII (Homo sapiens, UniProt P00748); experiment: Inhibition of FXIIa (unknown origin) using H-D-ProPhe-Arg-pNA.2HCl as substrate incubated for 30 mins followed by substrate addition and measured after 60 mins by microplate reader analysis
T1 sequence (P00748 whole entry): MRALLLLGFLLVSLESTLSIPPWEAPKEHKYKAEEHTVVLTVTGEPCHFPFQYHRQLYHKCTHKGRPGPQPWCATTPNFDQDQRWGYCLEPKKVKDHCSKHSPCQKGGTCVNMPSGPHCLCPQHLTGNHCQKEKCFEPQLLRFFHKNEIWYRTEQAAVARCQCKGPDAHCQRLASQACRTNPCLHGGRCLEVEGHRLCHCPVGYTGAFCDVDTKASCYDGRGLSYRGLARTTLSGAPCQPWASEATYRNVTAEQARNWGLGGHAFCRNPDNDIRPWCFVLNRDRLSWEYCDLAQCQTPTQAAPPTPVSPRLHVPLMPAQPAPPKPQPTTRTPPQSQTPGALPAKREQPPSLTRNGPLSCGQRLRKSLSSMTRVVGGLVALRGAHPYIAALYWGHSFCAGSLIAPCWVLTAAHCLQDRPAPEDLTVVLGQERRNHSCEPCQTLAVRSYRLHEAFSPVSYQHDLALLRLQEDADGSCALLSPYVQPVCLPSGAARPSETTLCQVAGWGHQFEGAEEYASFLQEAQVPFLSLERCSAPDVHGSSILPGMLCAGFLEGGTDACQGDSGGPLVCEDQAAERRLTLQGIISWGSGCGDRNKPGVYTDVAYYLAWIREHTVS

[7] = Selectivity index, ratio of IC50 for inhibition of FXIIa (unknown origin) using H-D-ProPhe-Arg-pNA.2HCl as substrate to IC50 for inhibition of human FXIa using p-Glu-Pro-Arg-pNA.HCl as substrate
[8] = Selectivity index, ratio of IC50 for inhibition of chymotrypsin (unknown origin) using N-Suc-Ala-Ala-Pro-Phe-pNA as substrate to IC50 for inhibition of human FXIa using p-Glu-Pro-Arg-pNA.HCl as substrate
[9] = Selectivity index, ratio of IC50 for inhibition of FXa (unknown origin) using Z-D-Arg-Gly-Arg-pNA.2HCl as substrate to IC50 for inhibition of human FXIa using p-Glu-Pro-Arg-pNA.HCl as substrate
[10] = Selectivity index, ratio of IC50 for inhibition of plasmin (unknown origin) using PyroGlu-Phe-Lys-pNA.HCl as substrate to IC50 for inhibition of human FXIa using p-Glu-Pro-Arg-pNA.HCl as substrate
[11] = molecular target: Tissue-type plasminogen activator (Homo sapiens, UniProt P00750); experiment: Inhibition of tPA (unknown origin) using H-D-Ile-Pro-Arg-pNA-2HCl as substrate incubated for 30 mins followed by substrate addition and measured after 60 mins by microplate reader analysis
Plasminogen = Plasminogen (Homo sapiens, UniProt P00747); experiment: Inhibition of plasmin (unknown origin) using PyroGlu-Phe-Lys-pNA.HCl as substrate incubated for 30 mins followed by substrate addition and measured after 60 mins by microplate reader analysis
[12] = Selectivity index, ratio of IC50 for inhibition of thrombin (unknown origin) using H-D-Phe-Pip-Arg-pNA.2HCl as substrate to IC50 for inhibition of human FXIa using p-Glu-Pro-Arg-pNA.HCl as substrate
[13] = Selectivity index, ratio of IC50 for inhibition of trypsin (unknown origin) using Bz-Ile-Glu(gamma-OR)-Gly-Arg-pNA.HCl as substrate to IC50 for inhibition of human FXIa using p-Glu-Pro-Arg-pNA.HCl as substrate
Prothrombin = Prothrombin (Homo sapiens, UniProt P00734); experiment: Inhibition of thrombin (unknown origin) using H-D-Phe-Pip-Arg-pNA.2HCl as substrate incubated for 30 mins followed by substrate addition and measured after 60 mins by microplate reader analysis
[14] = Plasma protein binding in human; type: ADME, cell-free; conditions: read-out: PPB (converted)
Mus musculus [15] = experiment: Antithrombotic activity in FeCl3-induced carotid arterial thrombosis C57BL/6J mouse model assessed as increase in peak velocity at 10 mg/kg, po measured after 0.5 to 4 hrs; type: functional, organism-based; conditions: time 0.5-4 hrs
Mus musculus [16] = experiment: Antithrombotic activity in FeCl3-induced carotid arterial thrombosis C57BL/6J mouse model assessed as increase in blood flow velocity at 10 mg/kg, po measured after 0.5 to 4 hrs; type: functional, organism-based; conditions: time 0.5-4 hrs
HK-2 [17] = experiment: Cytotoxicity against human HK-2 cells assessed as reduction in cell viability at 1 to 50 uM incubated for 24 hrs by MTT assay; type: toxicity, cell-based; conditions: hk-2, 24 h, dose 1-50 µM
[18] = Toxicity in male New Zealand white rabbit assessed as prolongation of bleeding time at 2 mg/kg, iv by ear bleeding assay; type: organism-based, Oryctolagus cuniculus; conditions: in vivo
HepG2 = experiment: Cytotoxicity against human HepG2 cells assessed as reduction in cell viability at 1 to 50 uM incubated for 24 hrs by MTT assay; type: toxicity, cell-based; conditions: hepg2, 24 h, dose 1-50 µM
[19] = Toxicity in C57BL/6J mouse assessed as prolongation of bleeding time at 10 mg/kg, IG measured after 30 mins by tail bleeding assay; type: organism-based; conditions: in vivo, po, 0.5 h
[20] = Cytotoxicity against human AC16 [Human hybrid] cells assessed as reduction in cell viability at 1 to 50 uM incubated for 24 hrs by MTT assay; type: toxicity, cell-based; conditions: dose 1-50 µM

Sequence of Coagulation factor XI (P03951 19-387 limits assumed): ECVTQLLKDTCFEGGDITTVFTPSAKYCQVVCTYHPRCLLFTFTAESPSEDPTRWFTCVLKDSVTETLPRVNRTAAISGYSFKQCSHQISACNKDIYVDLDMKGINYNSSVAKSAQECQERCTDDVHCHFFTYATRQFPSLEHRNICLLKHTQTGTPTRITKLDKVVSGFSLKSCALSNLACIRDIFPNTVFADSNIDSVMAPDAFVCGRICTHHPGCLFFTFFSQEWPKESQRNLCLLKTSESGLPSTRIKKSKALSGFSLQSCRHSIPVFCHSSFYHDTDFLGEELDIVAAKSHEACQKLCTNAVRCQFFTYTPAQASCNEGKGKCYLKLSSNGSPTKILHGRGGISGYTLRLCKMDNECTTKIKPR
Sequence of Coagulation factor XI (P03951 388-625 limits assumed): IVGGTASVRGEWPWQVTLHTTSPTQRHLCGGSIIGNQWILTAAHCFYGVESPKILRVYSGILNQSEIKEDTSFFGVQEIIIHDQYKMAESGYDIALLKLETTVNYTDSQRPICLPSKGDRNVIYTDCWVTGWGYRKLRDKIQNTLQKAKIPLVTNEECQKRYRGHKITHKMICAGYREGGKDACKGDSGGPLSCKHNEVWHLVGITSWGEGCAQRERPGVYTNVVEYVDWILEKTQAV
Sequence of Coagulation factor X (P00742 41-179 limits assumed): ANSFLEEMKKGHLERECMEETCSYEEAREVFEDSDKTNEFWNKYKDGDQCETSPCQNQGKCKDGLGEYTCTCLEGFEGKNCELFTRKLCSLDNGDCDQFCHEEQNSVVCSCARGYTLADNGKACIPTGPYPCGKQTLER
Sequence of Coagulation factor X (P00742 235-488 limits assumed): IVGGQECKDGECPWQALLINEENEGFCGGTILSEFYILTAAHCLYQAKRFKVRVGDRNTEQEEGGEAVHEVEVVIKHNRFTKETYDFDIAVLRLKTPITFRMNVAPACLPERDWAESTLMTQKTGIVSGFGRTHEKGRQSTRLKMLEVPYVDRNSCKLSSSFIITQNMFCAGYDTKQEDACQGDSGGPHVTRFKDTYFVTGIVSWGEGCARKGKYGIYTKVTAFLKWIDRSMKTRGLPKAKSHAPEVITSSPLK
Sequence of Plasminogen (P00747 97-580 limits assumed): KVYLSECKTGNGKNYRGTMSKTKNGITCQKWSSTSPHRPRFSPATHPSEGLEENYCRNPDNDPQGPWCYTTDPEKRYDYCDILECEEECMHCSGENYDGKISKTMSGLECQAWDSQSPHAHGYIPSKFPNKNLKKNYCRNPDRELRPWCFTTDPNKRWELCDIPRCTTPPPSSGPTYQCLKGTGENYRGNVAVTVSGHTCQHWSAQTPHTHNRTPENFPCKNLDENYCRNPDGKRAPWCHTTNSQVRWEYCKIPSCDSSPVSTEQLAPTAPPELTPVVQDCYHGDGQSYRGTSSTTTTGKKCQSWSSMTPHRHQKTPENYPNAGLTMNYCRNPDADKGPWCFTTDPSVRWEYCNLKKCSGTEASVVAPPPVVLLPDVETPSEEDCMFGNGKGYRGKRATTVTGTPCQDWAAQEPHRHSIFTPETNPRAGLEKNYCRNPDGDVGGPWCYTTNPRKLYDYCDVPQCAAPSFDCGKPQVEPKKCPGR
Sequence of Plasminogen (P00747 581-810 limits assumed): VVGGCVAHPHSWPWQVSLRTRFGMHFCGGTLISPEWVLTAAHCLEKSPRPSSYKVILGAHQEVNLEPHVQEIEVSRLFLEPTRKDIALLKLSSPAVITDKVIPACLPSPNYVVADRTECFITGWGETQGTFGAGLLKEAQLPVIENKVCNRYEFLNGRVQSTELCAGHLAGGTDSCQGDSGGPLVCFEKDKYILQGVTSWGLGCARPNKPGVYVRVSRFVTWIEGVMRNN
Sequence of Tissue-type plasminogen activator (P00750 whole entry): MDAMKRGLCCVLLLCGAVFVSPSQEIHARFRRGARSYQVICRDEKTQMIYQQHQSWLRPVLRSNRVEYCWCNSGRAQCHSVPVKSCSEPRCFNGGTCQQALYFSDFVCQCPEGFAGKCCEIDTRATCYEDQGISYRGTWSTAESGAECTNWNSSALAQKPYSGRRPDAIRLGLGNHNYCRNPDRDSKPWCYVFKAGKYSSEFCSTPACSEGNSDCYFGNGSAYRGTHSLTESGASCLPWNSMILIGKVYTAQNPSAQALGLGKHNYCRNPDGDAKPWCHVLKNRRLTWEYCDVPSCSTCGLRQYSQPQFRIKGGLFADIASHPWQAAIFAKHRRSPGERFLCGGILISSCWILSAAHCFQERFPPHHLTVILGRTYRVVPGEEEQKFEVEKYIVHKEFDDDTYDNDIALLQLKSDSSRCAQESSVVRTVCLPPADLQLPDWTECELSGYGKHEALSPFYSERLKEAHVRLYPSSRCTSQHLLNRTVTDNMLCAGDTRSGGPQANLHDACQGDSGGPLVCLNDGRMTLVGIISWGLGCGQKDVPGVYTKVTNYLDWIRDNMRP
Sequence of Plasma kallikrein (P03952 20-390 limits assumed): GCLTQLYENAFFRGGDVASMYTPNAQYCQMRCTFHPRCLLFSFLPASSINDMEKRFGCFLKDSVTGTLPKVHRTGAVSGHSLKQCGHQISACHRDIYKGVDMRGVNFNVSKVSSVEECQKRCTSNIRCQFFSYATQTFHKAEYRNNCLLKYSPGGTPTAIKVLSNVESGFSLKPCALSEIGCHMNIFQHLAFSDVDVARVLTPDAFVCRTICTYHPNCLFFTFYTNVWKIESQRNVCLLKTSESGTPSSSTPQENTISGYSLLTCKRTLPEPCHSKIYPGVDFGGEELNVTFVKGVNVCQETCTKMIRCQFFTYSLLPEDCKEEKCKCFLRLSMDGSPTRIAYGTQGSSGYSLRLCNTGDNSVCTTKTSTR
Sequence of Plasma kallikrein (P03952 391-638 limits assumed): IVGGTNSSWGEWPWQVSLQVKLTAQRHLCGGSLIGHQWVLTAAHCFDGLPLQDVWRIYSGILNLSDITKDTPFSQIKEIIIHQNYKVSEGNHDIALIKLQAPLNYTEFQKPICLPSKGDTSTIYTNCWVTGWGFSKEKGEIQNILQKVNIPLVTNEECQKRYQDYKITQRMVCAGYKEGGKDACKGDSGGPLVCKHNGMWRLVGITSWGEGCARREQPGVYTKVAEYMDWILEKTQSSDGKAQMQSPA

Compound: CC[C@@H](C(=O)Nc1ccc(C(N)=O)c(F)c1)n1cc(OC)c(-c2cc(Cl)ccc2-n2cc(Cl)nn2)cc1=O
Activity (Mus musculus [15]): Active | EC1.5 (Plasma [4]): 2.7 µM | Activity (Mus musculus [16]): Active; Outperformed Asundexian And Compound F | Activity (Plasma [2]): 248.2%

Compound: O=C(NC[C@H]1CN(c2ccc(N3CCOCC3=O)cc2)C(=O)O1)c1ccc(Cl)s1 [RIVAROXABAN]
Activity (HK-2 [17]): Non-toxic | Activity [18]: Toxic | Activity (HepG2): Non-toxic | Activity [19]: Toxic | Activity [20]: Non-toxic

Second part, led by results:

IC50 (Coagulation factor XI): 10.6 nM
Compound: CC[C@H](c1cc(-c2ccc(N)nc2)ccn1)n1cc(OC)c(-c2cc(Cl)ccc2-n2cnnn2)cc1=O
Activity (HK-2 [1]): Toxic | Activity (Plasma [2]): 59.6%

IC50 (Chymotrypsin): > 1000 nM | IC50 (Trypsin): > 1000 nM | Ratio IC50 [5]: > 1000 | IC50 (Plasma kallikrein): 37 nM | IC50 (Coagulation factor X): > 1000 nM | IC50 (Coagulation factor XI): 0.13 nM | IC50 (Coagulation factor XII): > 1000 nM | Ratio IC50 [7]: > 1000 | Ratio IC50 [8]: > 1000 | Ratio IC50 [9]: > 1000 | Ratio IC50 [10]: > 1000 | IC50 [11]: > 1000 nM | IC50 (Plasminogen): > 1000 nM | Ratio IC50 [12]: > 1000 | Ratio IC50 [13]: > 1000 | IC50 (Prothrombin): > 1000 nM
Compound: CC[C@@H](c1cc(-c2ccc(N)nc2)ccn1)n1cc(OC)c(-c2cc(Cl)ccc2-n2cnnn2)cc1=O
Activity (Plasma [3]): inactive | Activity (HK-2 [1]): Toxic | EC1.5 (Plasma [4]): 1.8 µM | Activity (Plasma [6]): Dose-dependent-effect | EC1.5 (Plasma [6]; 0.05 h): 0.29 µM | Activity (Plasma [2]): 368.3%

IC50 (Coagulation factor XI): 0.5 nM | fraction unbound [14]: 0.027
Compound: COc1cn(Cc2cccc(-c3ccncc3)c2)c(=O)cc1-c1cc(Cl)ccc1-n1cnnn1
Activity (Plasma [2]): 122.1%
